Data taken from US10457654B2 (GENENTECH, INC., priority 2017, dated 2019).
Counter-ions that a name gives are not always drawn. Like-named read-outs stand apart in the source and are kept apart here.

Molecular target: hNav1.7 (Homo sapiens (Human), UniProt Q15858)
Assay: Tritiated compound binding to membranes from cells expressing hNav1.7 and the β1 subunit, competitive binding (LBA, Ex. 243A)
Settings: 100 pM [3H]compound, 18 h, room temperature
Protocol: Tritiated Compound Binding to Membranes Isolated from Cells that Heterologously Express hNav1.7 and the β1 Subunit
Preparation of membranes containing recombinantly expressed sodium channels: Frozen recombinant cell pellets were thawed on ice and diluted to 4 times the cell pellet weight with ice cold 50 mM Tris HCl, pH 7.4 buffer. The cell suspensions were homogenized on ice using a motorized glass dounce homogeniser. Homogenates were further diluted 8.4 times with ice cold 50 mM Tris HCl, pH 7.4 buffer and then centrifuged at 200×g at 4° C. for 15 min. The supernatants were collected and centrifuged at 10000×g at 4° C. for 50 min. […] The homogenized membranes were then processed through a syringe equipped with a 26 gauge needle. Protein concentrations were determined by Bradford Assay and the membranes were stored at −80° C.
Radioligand Binding Studies: Saturation experiments. A competitive NaV1.7 inhibitor having a methyl group was tritiated. Three tritiums were incorporated in place of methyl hydrogens to generate [^3H]compound. Binding of this radioligand was performed in 5 mL borosilicate glass test tubes at room temperature. […] Non-specific binding was determined in the presence of 1 μM unlabeled compound. After 18h, the reactants were filtered through GF/C glass fiber filters presoaked in 0.5% w/v polyethylene imine. […] [^3H]compound bound to filters was quantified by liquid scintillation counting.
Competitive binding experiments: Binding reactions were performed in 96-well polypropylene plates at room temperature for 18h. In 360 μL, membranes were incubated with 100 pM [^3H]compound and increasing concentrations of Test Compound. Non-specific binding was defined in the presence of 1 μM unlabeled compound. Reactions were transferred and filtered through 96-well glass fiber/C filter plates presoaked with 0.5% polyethylene imine. The filtered reactions were washed 5 times with 200 μL ice cold buffer containing 0.25% BSA. Bound radioactivity was determined by liquid scintillation counting.
Data Analysis: For saturation experiments, non-specific binding was subtracted from total binding to provide specific binding and these values were recalculated in terms of pmol ligand bound per mg protein. Saturation curves were constructed and dissociation constants were calculated using the single site ligand binding model: Beq=(Bmax*X)/(X+Kd), where Beq is the amount of ligand bound at equilibrium, Bmax is the maximum receptor density, Kd is the dissociation constant for the ligand, and X is the free ligand concentration. For competition studies percent inhibition was determined and IC50 values were calculated using a 4 parameter logistic model (% inhibition=(A+((B−A)/(1+((x/C)^D)))) using XLfit, where A and B are the maximal and minimum inhibition respectively, C is the IC50 concentration and D is the (Hill) slope.

[1] = read-out: Nav1.7 LBA (Ex. 243A) IC50
[2] = read-out: Nav1.7 (LBA) (Ex. 243A)

Chain of hNav1.7 (Q15858 whole entry, looked up): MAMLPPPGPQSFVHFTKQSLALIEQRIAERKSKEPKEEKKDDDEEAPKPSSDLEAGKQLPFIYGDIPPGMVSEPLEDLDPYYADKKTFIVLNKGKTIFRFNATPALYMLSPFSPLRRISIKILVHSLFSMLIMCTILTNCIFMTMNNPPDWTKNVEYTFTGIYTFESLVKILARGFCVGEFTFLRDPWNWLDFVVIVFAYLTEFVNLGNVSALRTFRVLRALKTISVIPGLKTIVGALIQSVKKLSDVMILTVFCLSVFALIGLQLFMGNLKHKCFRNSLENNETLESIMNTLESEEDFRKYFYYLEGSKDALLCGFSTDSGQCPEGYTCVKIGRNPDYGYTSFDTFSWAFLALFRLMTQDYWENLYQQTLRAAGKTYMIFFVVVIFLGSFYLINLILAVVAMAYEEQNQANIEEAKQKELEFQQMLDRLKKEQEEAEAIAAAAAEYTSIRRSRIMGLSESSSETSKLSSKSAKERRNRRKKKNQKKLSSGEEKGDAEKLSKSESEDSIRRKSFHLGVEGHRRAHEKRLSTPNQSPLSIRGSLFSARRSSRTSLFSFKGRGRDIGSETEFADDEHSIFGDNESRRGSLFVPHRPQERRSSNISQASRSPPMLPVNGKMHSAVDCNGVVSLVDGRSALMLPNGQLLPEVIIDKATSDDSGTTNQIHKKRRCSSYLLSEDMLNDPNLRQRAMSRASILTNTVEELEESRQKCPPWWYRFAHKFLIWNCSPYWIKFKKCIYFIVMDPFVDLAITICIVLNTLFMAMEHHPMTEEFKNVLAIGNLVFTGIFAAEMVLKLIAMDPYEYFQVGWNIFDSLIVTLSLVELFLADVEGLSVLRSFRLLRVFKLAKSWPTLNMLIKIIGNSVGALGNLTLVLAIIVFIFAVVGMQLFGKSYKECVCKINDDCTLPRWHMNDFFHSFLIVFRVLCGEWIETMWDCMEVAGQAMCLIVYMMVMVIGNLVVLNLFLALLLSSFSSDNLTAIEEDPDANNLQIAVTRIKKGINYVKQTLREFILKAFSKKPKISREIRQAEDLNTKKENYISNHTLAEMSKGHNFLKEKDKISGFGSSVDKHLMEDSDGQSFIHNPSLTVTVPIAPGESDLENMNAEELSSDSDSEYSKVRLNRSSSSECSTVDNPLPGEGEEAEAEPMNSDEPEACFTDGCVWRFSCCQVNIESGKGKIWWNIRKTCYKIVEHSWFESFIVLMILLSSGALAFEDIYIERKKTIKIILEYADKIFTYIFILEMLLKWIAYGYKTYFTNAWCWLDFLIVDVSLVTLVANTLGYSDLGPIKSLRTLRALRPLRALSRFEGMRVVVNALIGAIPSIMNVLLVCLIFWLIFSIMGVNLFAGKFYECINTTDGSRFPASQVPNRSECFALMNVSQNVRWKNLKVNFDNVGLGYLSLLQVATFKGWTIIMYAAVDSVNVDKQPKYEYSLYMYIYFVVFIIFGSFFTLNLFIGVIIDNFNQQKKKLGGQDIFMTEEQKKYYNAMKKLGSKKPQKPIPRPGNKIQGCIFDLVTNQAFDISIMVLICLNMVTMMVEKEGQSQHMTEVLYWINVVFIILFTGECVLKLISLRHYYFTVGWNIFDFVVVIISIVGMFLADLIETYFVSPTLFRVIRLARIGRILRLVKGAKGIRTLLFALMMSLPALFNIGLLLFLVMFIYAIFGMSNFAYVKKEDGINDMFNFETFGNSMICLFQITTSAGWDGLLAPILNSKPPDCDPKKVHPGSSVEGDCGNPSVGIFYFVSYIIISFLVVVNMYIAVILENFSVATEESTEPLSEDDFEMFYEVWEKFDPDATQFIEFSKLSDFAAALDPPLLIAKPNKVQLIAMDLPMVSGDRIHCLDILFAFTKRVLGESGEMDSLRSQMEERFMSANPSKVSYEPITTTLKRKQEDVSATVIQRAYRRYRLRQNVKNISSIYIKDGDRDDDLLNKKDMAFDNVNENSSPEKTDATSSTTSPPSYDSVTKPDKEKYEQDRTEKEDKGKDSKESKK
Chain of hNav1.7 (Q07699 whole entry partner, looked up): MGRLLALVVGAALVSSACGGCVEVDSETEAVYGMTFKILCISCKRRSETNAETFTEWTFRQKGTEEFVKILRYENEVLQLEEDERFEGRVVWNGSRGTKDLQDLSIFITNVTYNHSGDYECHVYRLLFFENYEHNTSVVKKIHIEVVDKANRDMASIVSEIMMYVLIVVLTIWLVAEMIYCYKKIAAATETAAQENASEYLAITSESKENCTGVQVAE

Compound | IC50 [1] [nM] | IC50 [2] [nM]
CN(C)[C@H]1CC[C@@H](C(F)(F)F)C[C@@H]1Nc1cc(F)c(S(=O)(=O)Nc2nccs2)cc1Cl [Example 76, 5-chloro-4-(((1S,2S,5R)-2-(dimethylamino)-5-(trifluoromethyl)cyclohexyl)amino)-2-fluoro-N-(thiazol-2-yl)benzenesulfonamide] | 116 | 
CN(C)[C@H]1CCCC[C@@H]1Nc1cc(F)c(S(=O)(=O)Nc2ccncn2)cc1Cl [Example 11, 5-chloro-4-(((1S,2S)-2-(dimethylamino)cyclohexyl)amino)-2-fluoro-N-(pyrimidin-4-yl)benzenesulfonamide] |  | 126
CC(C)N(C)[C@H]1CCCC[C@@H]1Nc1cc(F)c(S(=O)(=O)Nc2nccs2)cc1Cl [Example 33, 5-chloro-2-fluoro-4-(((1S,2S)-2-(isopropyl(methyl)amino)cyclohexyl)amino)-N-(thiazol-2-yl)benzenesulfonamide] | 82.4 | 
N[C@H]1CCCC[C@@H]1Nc1cc(F)c(S(=O)(=O)Nc2nccs2)cc1Cl [Example 1, 4-(((1S,2S)-2-aminocyclohexyl)amino)-5-chloro-2-fluoro-N-(thiazol-2-yl)benzenesulfonamide] |  | 197
CN(C)[C@H]1CCCC[C@@H]1Nc1cc(F)c(S(=O)(=O)Nc2ncns2)cc1F [Example 13, 4-(((1S,2S)-2-(dimethylamino)cyclohexyl)amino)-2,5-difluoro-N-(1,2,4-thiadiazol-5-yl)benzenesulfonamide formate] |  | 357
CN(C[C@H](O)C(F)(F)F)[C@H]1CCCC[C@@H]1Nc1cc(F)c(S(=O)(=O)Nc2nccs2)cc1Cl [Example 94, 5-chloro-2-fluoro-4-(((1S,2S)-2-(methyl((S)-3,3,3-trifluoro-2-hydroxypropyl)amino)cyclohexyl)amino)-N-(thiazol-2-yl)benzenesulfonamide] | 31.3 | 
CN(C1CNC1)[C@H]1CCCC[C@@H]1Nc1cc(F)c(S(=O)(=O)Nc2nccs2)cc1C1CC1 [Example 57, 4-(((1S,2S)-2-(azetidin-3-yl(methyl)amino)cyclohexyl)amino)-5-cyclopropyl-2-fluoro-N-(thiazol-2-yl)benzenesulfonamide dihydrochloride] | 2.42 | 
CCN(CC)[C@H]1CCCC[C@@H]1Nc1cc(F)c(S(=O)(=O)Nc2nccs2)cc1Cl [Example 17, 5-chloro-4-[[(1S,2S)-2-(diethylamino)cyclohexyl]amino]-2-fluoro-N-thiazol-2-yl-benzenesulfonamide] |  | 237
CCN[C@H]1CCCC[C@@H]1Nc1cc(F)c(S(=O)(=O)Nc2ccncn2)cc1C1CC1 [Example 100, 5-cyclopropyl-4-(((1S,2S)-2-(ethylamino)cyclohexyl)amino)-2-fluoro-N-(pyrimidin-4-yl)benzenesulfonamide] | 127 | 
CN[C@H]1CCCC[C@@H]1Nc1cc(F)c(S(=O)(=O)Nc2nccs2)cc1Cl [Example 3, 5-chloro-2-fluoro-4-(((1S,2S)-2-(methylamino)cyclohexyl)amino)-N-(thiazol-2-yl)benzenesulfonamide 2,2,2-trifluoroacetate] |  | 16
CCN(C)[C@H]1CCCC[C@@H]1Nc1cc(F)c(S(=O)(=O)Nc2cccc(F)n2)cc1Cl [Example 71, 5-chloro-4-(((1S,2S)-2-(ethyl(methyl)amino)cyclohexyl)amino)-2-fluoro-N-(6-fluoropyridin-2-yl)benzenesulfonamide] | 41.3 | 
CN(CC(N)=O)[C@H]1CCCC[C@@H]1Nc1cc(F)c(S(=O)(=O)Nc2nccs2)cc1Cl [Example 79, 2-(((1S,2S)-2-((2-chloro-5-fluoro-4-(N-(thiazol-2-yl)sulfamoyl)phenyl)amino)cyclohexyl)(methyl)amino)acetamide formate] | 9.28 | 
CN(C)[C@H]1CCCC[C@@H]1Nc1ccc(S(=O)(=O)Nc2nccs2)cc1[N+](=O)[O-] [Example 28, 4-(((1S,2S)-2-(dimethylamino)cyclohexyl)amino)-3-nitro-N-(thiazol-2-yl)benzenesulfonamide] | 199 | 
CN(C)[C@@H]1CCCC[C@H]1Oc1cc(F)c(S(=O)(=O)Nc2nccs2)cc1Cl [Example 8, 5-chloro-4-(((1R,2R)-2-(dimethylamino)cyclohexyl)oxy)-2-fluoro-N-(thiazol-2-yl)benzenesulfonamide] |  | 3000
CN[C@H]1CCCC[C@@H]1Nc1cc(F)c(S(=O)(=O)Nc2nccs2)cc1Br [Example 50, 5-bromo-2-fluoro-4-(((1S,2S)-2-(methylamino)cyclohexyl)amino)-N-(thiazol-2-yl)benzenesulfonamide formate] | 58.4 | 
CCN[C@H]1CCCC[C@@H]1Oc1cc(F)c(S(=O)(=O)Nc2ccncn2)cc1C1CC1 [Example 96, 5-cyclopropyl-4-(((1S,2S)-2-(ethylamino)cyclohexyl)oxy)-2-fluoro-N-(pyrimidin-4-yl)benzenesulfonamide] | 630 | 
CN(C)[C@@H]1CC[C@@H](C(F)(F)F)C[C@H]1Nc1cc(F)c(S(=O)(=O)Nc2nccs2)cc1Cl [Example 83, 5-chloro-4-(((1R,2R,5R)-2-(dimethylamino)-5-(trifluoromethyl)cyclohexyl)amino)-2-fluoro-N-(thiazol-2-yl)benzenesulfonamide] | 379 | 
CN(C)[C@H]1CCCC[C@@H]1Nc1cc(F)c(S(=O)(=O)Nc2nccs2)cc1Cl [Example 2, 5-chloro-4-(((1S,2S)-2-(dimethylamino)cyclohexyl)amino)-2-fluoro-N-(thiazol-2-yl)benzenesulfonamide] |  | 38.2
CN(C)[C@H]1CCC[C@@H]1Nc1cc(F)c(S(=O)(=O)Nc2nccs2)cc1Cl [Example 12, 5-chloro-4-(((1S,2S)-2-(dimethylamino)cyclopentyl)amino)-2-fluoro-N-(thiazol-2-yl)benzenesulfonamide] |  | 165
CN(C1CNC1)[C@H]1CCCC[C@@H]1Oc1cc(F)c(S(=O)(=O)Nc2nccs2)cc1C1CC1 [Example 90, 4-(((1S,2S)-2-(azetidin-3-yl(methyl)amino)cyclohexyl)oxy)-5-cyclopropyl-2-fluoro-N-(thiazol-2-yl)benzenesulfonamide formate] | 2.64 | 
5-chloro-4-(((1 S,2S)-2-(ethylamino)cyclohexyl)amino)-2-fluoro-N-(pyrimidin-4-yl)benzenesulfonamide [Example 22] |  | 95.1
CCN[C@H]1CCCC[C@@H]1Nc1cc(F)c(S(=O)(=O)Nc2nccs2)cc1Br [Example 52, 5-bromo-4-(((1S,2S)-2-(ethylamino)cyclohexyl)amino)-2-fluoro-N-(thiazol-2-yl)benzenesulfonamide formate] | 8.48 | 
CCN[C@@H]1CCCC[C@H]1Oc1cc(F)c(S(=O)(=O)Nc2nccs2)cc1Cl [Example 43, 5-chloro-4-(((1R,2R)-2-(ethylamino)cyclohexyl)oxy)-2-fluoro-N-(thiazol-2-yl)benzenesulfonamide] | 1130 | 
CN(C)[C@H]1CCCC[C@@H]1Oc1cc(F)c(S(=O)(=O)Nc2nccs2)cc1Cl [Example 7, 5-chloro-4-(((1S,2S)-2-(dimethylamino)cyclohexyl)oxy)-2-fluoro-N-(thiazol-2-yl)benzenesulfonamide] |  | 89.9
CCCN(C)[C@H]1CCCC[C@@H]1Nc1cc(F)c(S(=O)(=O)Nc2nccs2)cc1Cl [Example 29, 5-chloro-2-fluoro-4-(((1S,2S)-2-(methyl(propyl)amino)cyclohexyl)amino)-N-(thiazol-2-yl)benzenesulfonamide] | 60.1 | 
CCCN[C@H]1CCCC[C@@H]1Nc1cc(F)c(S(=O)(=O)Nc2nccs2)cc1Cl [Example 34, 5-chloro-2-fluoro-4-(((1 S,2S)-2-(propylamino)cyclohexyl)amino)-N-(thiazol-2-yl)benzenesulfonamide] | 35.2 | 
CCN[C@H]1CCCC[C@@H]1Nc1cc(F)c(S(=O)(=O)Nc2nccs2)cc1Cl [Example 4, 2,2,2-trifluoroacetate] |  | 4.15
CCN(Cc1ccccc1)[C@H]1CCCC[C@@H]1Nc1cc(F)c(S(=O)(=O)Nc2nccs2)cc1Cl [Example 6, 4-(((1S,2S)-2-(benzyl(ethyl)amino)cyclohexyl)amino)-5-chloro-2-fluoro-N-(thiazol-2-yl)benzenesulfonamide] |  | 994
CN(C)[C@@H]1C[C@@H](C(F)(F)F)CC[C@H]1Nc1cc(F)c(S(=O)(=O)Nc2nccs2)cc1Cl [Example 81, 5-chloro-4-(((1R,2R,4S)-2-(dimethylamino)-4-(trifluoromethyl)cyclohexyl)amino)-2-fluoro-N-(thiazol-2-yl)benzenesulfonamide] | 1740 | 
